Data on five molecules can be found in ChEMBL document CHEMBL1201862, “PubChem BioAssay data set” (2004).

Activity calls are given as the source filed them.

In general, AC50 refers to the concentration giving half of the maximal activity seen. What is called IC50 is the concentration at which inhibition is half-maximal. For orientation: EC50 means the concentration that produces a half-maximal response. One may read the CC50 as the concentration at which the toxic effect on the cells reaches its halfway point.

Assay [1] in a line: HEK293 Cytotoxicity Assay Measured in Cell-Based System Using Plate Reader - 7071-01_Inhibitor_Dose_CherryPick_Activity_Set2. The assay is classed as functional.
Assay [2] relates to HEK293. The experiment in a line: HEK293T cell cytotoxicity, dose response, cytotoxicity control, ATP luminescence, cherry-pick samples (AID 687005).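 Note: cells exposed to compound for 48 hours.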 The assay is classed as functional, cell-based. To be noted: Homo sapiens.
The target of assay [3] is Caspase-6 (Homo sapiens, UniProt P55212). The experiment in a line: human caspase-6 inhibitors, dose response, biochemical, VEID-R110 fluorescence, cherry-pick (AID 720632).
Assay [4] in a line: ADAM10 inhibitors, peptide cleavage, dose response, biochemical, QFRET (AID 743254).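 Note: ADAM10 enzyme with the DM2 quenched FRET peptide as substrate; EDANS fluorescence gain as the protease cuts the substrate; inhibitor potency against ADAM10 proteolytic activity.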
In assay [5] the target is Disintegrin and metalloproteinase domain-containing protein 17 (Homo sapiens, UniProt P78536). The experiment in a line: ADAM17 protease inhibitors, dose response, counter-screen for ADAM10 exosite inhibitor project, biochemical, quenched FRET substrate (AID 743253).
For assay [6], the target named is T1, RNA-binding protein pos-1 (Caenorhabditis elegans, UniProt G5EF15).
T1 sequence (G5EF15 whole entry): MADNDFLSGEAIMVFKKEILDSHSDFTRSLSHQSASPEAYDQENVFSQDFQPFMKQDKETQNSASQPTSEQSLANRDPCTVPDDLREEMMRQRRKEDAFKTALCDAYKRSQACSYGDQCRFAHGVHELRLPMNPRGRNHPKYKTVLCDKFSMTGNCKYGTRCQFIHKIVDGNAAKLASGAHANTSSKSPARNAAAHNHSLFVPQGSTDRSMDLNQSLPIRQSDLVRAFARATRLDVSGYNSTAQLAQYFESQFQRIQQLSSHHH
The experiment in a line: inhibitors of POS-1/mex-3 RNA binding, dose response, biochemical, fluorescence polarization (AID 1964).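 Note: purified POS-1 fused to maltose binding protein made in E. coli; potency of compounds blocking POS-1 binding to fluorescent RNA.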 For orientation: Polarisation of emitted light reports the rotation of a fluorescent probe.

Assay [7] addresses T2, Zinc finger protein mex-5 (Caenorhabditis elegans, UniProt Q9XUB2).
T2 sequence (Q9XUB2 whole entry): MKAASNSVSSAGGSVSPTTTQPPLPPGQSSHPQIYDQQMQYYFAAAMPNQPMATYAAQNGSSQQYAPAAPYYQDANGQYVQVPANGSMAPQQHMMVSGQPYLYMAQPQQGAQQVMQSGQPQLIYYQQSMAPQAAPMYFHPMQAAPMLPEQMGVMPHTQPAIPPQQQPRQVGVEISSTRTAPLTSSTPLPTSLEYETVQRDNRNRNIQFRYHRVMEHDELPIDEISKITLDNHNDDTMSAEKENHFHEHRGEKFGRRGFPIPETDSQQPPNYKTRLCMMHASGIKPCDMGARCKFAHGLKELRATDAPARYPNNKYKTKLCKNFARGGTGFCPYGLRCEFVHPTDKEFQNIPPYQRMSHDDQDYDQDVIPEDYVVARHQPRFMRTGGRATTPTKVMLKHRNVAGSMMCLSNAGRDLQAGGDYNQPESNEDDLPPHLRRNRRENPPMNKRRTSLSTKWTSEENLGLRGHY
Kind of assay: MEX-5/TCR-2 RNA interaction inhibitors, dose response, biochemical, C. elegans, fluorescence polarization (AID 1960).

A short description of assay [8]: cells.
Assay [9] deals with T3, Heat shock factor protein 1 (Mus musculus, UniProt P38532).
T3 sequence (P38532 whole entry): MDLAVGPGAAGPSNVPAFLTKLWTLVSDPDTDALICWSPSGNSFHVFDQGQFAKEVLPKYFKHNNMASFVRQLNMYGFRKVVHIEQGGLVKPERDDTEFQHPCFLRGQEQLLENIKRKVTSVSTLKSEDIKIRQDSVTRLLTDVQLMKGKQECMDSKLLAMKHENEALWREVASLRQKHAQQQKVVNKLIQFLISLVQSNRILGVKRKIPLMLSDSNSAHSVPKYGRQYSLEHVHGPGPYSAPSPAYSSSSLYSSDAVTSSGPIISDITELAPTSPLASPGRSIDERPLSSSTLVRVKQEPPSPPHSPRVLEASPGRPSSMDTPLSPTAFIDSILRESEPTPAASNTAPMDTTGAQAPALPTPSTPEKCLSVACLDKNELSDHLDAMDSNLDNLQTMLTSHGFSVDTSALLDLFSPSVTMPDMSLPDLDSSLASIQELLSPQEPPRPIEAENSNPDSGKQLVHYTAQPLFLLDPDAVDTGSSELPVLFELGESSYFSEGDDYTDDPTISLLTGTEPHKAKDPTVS
The experiment in a line: HSF1 potentiators in luciferase reporter cells, confirmation, cell-based, NIH3T3, luminescence, dose retest (AID 435004).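 Note: stress induced by proteasome inhibitor MG132 added 30 min after compound; luciferase reporter driven by HSF1 response element in NIH3T3 cells; actives raise luminescence as potentiators of the MG132 stress response.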 The assay is classed as functional. Background: Reporter assays use an easily measured gene product as a stand-in for the process of interest.

Assay [10] addresses T4, Aminopeptidase N (Plasmodium falciparum FcB1/Columbia, UniProt O96935).
T4 sequence (O96935 whole entry): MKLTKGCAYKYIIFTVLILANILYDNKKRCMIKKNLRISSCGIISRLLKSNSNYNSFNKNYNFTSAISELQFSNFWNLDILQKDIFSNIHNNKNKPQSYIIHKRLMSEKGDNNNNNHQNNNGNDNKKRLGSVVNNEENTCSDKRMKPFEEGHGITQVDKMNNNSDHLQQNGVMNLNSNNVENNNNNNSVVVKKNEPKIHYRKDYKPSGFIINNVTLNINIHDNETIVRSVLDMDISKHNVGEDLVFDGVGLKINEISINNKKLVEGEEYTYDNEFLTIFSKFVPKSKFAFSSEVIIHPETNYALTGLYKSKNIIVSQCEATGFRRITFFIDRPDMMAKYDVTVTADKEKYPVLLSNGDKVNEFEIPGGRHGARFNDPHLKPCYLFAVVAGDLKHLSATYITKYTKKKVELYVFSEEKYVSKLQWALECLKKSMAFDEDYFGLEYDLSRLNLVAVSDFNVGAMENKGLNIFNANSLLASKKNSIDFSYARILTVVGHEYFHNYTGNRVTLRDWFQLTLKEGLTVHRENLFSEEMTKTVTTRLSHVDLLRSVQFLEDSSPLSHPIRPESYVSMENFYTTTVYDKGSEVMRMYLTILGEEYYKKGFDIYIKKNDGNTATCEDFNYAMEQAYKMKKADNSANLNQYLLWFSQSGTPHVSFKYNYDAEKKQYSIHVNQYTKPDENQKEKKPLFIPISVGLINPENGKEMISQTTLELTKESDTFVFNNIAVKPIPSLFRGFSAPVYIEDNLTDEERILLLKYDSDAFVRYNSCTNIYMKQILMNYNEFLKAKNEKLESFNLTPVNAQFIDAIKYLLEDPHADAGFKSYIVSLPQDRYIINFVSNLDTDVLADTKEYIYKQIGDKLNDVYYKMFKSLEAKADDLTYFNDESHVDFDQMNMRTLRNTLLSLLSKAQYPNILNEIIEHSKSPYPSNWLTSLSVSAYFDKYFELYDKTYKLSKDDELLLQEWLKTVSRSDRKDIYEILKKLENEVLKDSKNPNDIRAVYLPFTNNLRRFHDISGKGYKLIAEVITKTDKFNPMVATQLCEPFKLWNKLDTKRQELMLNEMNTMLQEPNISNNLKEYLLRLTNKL
Kind of assay: P. falciparum M1AAP inhibitors, biochemical, fluorogenic H-Leu-NHMec substrate, 1536-well (AID 1445). The arrangement: species or system Plasmodium falciparum 3D7, 3D7.

Assay [11] is described as follows: HEp-2 cell cytotoxicity, dose response, cytotoxicity control for RSV inhibitor project, HTS (AID 2410). The assay is classed as functional. To be noted: human respiratory syncytial virus.

Chain of Caspase-6 (P55212 24-179 limits assumed): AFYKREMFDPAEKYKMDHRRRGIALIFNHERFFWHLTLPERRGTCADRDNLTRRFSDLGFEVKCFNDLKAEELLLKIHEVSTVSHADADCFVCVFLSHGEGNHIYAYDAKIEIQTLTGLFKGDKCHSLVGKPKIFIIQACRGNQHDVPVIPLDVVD
Chain of Caspase-6 (P55212 194-293 limits assumed): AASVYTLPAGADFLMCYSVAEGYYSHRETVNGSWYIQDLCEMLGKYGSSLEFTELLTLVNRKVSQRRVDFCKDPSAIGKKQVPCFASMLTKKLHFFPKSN
Chain of Disintegrin and metalloproteinase domain-containing protein 17 (P78536 whole entry, the tested form may be a part): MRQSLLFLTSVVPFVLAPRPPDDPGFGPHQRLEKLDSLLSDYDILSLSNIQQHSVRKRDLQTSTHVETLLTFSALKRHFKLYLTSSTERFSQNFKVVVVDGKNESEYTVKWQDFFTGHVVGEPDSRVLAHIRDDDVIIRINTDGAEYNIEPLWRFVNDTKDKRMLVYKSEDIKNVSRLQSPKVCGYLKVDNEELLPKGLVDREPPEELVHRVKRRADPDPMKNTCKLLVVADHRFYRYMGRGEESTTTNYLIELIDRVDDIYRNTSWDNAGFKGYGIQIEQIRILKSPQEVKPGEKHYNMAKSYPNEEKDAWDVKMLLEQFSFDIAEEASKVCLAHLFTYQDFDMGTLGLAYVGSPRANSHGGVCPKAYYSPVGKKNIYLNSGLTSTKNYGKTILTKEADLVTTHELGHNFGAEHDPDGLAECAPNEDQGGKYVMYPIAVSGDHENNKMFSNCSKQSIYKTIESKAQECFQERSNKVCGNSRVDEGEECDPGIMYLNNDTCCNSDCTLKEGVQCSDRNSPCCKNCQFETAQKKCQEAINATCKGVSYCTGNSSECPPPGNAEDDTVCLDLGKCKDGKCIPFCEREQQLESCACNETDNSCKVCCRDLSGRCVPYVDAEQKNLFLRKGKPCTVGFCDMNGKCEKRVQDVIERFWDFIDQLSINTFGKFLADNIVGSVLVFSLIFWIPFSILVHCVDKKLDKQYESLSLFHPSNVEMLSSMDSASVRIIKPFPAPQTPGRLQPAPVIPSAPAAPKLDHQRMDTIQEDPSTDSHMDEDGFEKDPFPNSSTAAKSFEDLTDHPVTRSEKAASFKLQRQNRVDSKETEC

In the case of `Cc1ccc(C(=O)NC(=S)Nc2ccc(N3CCOCC3)cc2)cc1`, the AC50 in [1] and in assay [2] was 20.1 µM (active) in each case.
As for `O=C(Cc1cccs1)N1Cc2ccccc2-n2nncc2C1`, the AC50 in assay [3] was 5.36 µM (active).
For the molecule `OC(c1ccccc1)(c1nc(-c2ccc3c(c2)OCO3)cs1)C(F)(F)F` (configuration not stated), the IC50 in assay [4] was > 7.73 µM (active); in [5], > 69.5 µM (inactive).
Regarding `CCN(CC)c1ccc2cc(C#N)c(=O)oc2c1`, the EC50 in assay [6] is 76.3 µM (active); in [7], 63 µM (inconclusive). For the same molecule, the AC50 in assay [8] is 0.575 µM (active).
Regarding `CCOC(=O)COc1ccc(Br)cc1/C=C/c1nc(O)nc(O)c1[N+](=O)[O-]`, in assay [3], the AC50 was 5.09 µM (active). Besides, in assay [9], the EC50 was 15.6 µM (active). Moreover, the IC50 in [10] is 25.4 µM (active). Besides, in assay [11], the CC50 is 12.7 µM (active).
